Values of other authors, collected in US20240316039A1, “METHOD OF REDUCING ELEVATED INTRAOCULAR PRESSURE” (SUN PHARMA ADVANCED RESEARCH COMPANY LIMITED, priority 2021, published 2024).
Read-outs that look alike come from different tables or passages of the source.

Test system: ocular hypertensive eyes and normotensive eyes

## Brc1c(NC2=NCCN2)ccc2nccnc12 [Brimonidine]
In vivo
  duration of effect: less than 12 hours
  time of peak effect after instillation: ≤ 2 h
Normotensive eyes (less than 21 mm Hg)
  peak IOP reduction: 6-18%
Ocular hypertensive eyes
  peak IOP reduction: 20-25%
